These results are taken from ChEMBL document CHEMBL3112417, “Design, synthesis, radiolabeling and in vivo evaluation of potential positron emission tomography (PET) radioligands for brain imaging of the 5-HT₇ receptor” (Bioorg Med Chem, 2014).

SMILES strings stand for the structures.

In the first series the target is T1, Adrenergic receptor alpha-1 (Rattus norvegicus, UniProt P15823+P23944+P43140).
T1 sequence (P15823 whole entry): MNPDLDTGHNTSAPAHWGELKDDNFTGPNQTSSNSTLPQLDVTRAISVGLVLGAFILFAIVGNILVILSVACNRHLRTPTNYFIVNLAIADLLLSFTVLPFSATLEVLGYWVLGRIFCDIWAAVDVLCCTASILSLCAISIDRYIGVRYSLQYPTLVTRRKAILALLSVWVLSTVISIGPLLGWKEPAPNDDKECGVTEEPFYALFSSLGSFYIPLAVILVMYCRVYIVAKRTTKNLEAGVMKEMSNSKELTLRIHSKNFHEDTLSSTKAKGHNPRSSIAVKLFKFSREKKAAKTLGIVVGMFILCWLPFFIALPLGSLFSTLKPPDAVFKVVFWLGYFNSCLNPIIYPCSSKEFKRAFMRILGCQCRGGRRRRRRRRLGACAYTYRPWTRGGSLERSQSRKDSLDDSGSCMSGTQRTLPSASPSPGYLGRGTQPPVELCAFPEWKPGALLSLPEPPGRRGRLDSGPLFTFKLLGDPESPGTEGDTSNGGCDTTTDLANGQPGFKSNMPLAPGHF
T1 sequence (P23944 whole entry): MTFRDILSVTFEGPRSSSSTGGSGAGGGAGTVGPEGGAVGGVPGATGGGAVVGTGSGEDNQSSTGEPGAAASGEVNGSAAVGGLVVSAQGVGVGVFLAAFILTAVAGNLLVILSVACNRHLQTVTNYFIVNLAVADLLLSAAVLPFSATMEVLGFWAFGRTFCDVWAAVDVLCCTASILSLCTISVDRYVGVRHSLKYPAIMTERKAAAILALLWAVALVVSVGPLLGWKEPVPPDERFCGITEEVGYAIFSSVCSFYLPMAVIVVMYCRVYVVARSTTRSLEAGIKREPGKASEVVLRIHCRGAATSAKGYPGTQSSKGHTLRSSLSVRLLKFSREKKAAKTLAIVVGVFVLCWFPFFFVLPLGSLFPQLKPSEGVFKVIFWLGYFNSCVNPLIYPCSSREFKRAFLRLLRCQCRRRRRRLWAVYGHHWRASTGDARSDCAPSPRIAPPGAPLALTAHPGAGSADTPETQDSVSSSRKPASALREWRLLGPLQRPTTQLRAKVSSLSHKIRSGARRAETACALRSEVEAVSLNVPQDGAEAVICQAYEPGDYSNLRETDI
T1 sequence (P43140 whole entry): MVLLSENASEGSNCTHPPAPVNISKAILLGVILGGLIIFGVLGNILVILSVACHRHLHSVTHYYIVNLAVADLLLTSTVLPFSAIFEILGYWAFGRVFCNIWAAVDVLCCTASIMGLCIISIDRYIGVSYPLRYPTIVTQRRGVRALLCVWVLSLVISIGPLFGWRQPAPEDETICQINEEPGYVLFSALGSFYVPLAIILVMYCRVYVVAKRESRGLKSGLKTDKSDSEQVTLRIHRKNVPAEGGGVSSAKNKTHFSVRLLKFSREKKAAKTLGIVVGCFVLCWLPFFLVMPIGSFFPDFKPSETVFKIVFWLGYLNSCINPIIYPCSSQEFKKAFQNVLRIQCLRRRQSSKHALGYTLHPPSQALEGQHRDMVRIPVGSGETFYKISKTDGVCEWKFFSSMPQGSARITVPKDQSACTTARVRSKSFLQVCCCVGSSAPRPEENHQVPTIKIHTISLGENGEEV
Kind of series: Displacement of [3H]-prazosin from rat brain alpha1 adrenergic receptor after 50 mins.
Conditions: not given; call rule not given here
A word on the Ki: it is the equilibrium dissociation constant of an inhibitor or competing ligand from its target. High values mean lower affinity, low ones higher affinity. The compound `COc1ccccc1-c1cccc(N2CCN(CCOCCC(=O)NCc3ccc(F)nc3)CC2)c1` came in with a Ki of more than 1 µM.

Take `COc1ccc(CNC(=O)CCCCCN2CCN(c3cccnc3-c3ccncc3)CC2)cc1`: the Ki is more than 1 µM.

On to `COc1ccc(-c2ccccc2N2CCN(CCCCCC(=O)NCc3ccc(F)nc3)CC2)cc1`, for which the Ki worked out at 0.0133 µM.

The compound `O=C(CCCCCN1CCN(c2ncccc2-c2ccncc2)CC1)NCc1ccc(F)nc1` had a Ki of 0.255 µM.

In turn, `COc1ccc(-c2ccccc2N2CCN(CCOCCC(=O)NCc3ccc(F)nc3)CC2)cc1` came in with a Ki of 0.386 µM.

Compound `Cc1ccccc1-c1ccccc1N1CCN(CCOCCC(=O)NCc2ccc(F)nc2)CC1` showed a Ki of 0.365 µM. This Ki and that of the compound before are within 1.5-fold of each other.

Compound `COc1ccc(CNC(=O)CCCCCN2CCN(c3ncccc3-c3ccncc3)CC2)cc1` returned an inhibition constant Ki of 0.816 µM.

For `O=C(CCOCCN1CCN(c2ccccc2-c2ccc(F)cc2)CC1)NCc1ccc(F)nc1`, the Ki stood at 0.0513 µM. This Ki is about 16-fold lower than that of the compound before.

Consider `O=C(CCCCCN1CCN(c2cccnc2-c2ccncc2)CC1)NCc1ccc(F)nc1`, for which the Ki was found to be 0.414 µM. Against the preceding compound, the Ki is about 8.1-fold higher.

For `COc1ccc(CNC(=O)CCOCCN2CCN(c3ccccc3-c3ccccc3C)CC2)cc1`, the Ki was 0.162 µM.

Compound `COc1ccc(CNC(=O)CCOCCN2CCN(c3cccc(-c4ccccc4OC)c3)CC2)cc1` displayed a Ki of more than 1 µM.

The compound `COc1ccc(CNC(=O)CCOCCN2CCN(c3ccccc3-c3ccc(F)cc3)CC2)cc1` yielded a Ki of 0.156 µM.

The test system of a further series is Sus scrofa. Kind of series: Ratio of drug uptake in Danish Landrace pig brain at 432 +/- 102 MBq, iv in presence of cyclosporine A to drug uptake in Danish Landrace pig brain at 432 +/- 102 MBq, iv after 90 mins. The following applies: in vivo.
Consider `[11CH3]Oc1ccc(-c2ccccc2N2CCN(CCCCCC(=O)NCc3ccncc3)CC2)cc1`, for which the Ratio is 3.

For the next series, the target named is T2, 5-hydroxytryptamine receptor 1A (Homo sapiens, UniProt P08908).
T2 sequence (P08908 whole entry): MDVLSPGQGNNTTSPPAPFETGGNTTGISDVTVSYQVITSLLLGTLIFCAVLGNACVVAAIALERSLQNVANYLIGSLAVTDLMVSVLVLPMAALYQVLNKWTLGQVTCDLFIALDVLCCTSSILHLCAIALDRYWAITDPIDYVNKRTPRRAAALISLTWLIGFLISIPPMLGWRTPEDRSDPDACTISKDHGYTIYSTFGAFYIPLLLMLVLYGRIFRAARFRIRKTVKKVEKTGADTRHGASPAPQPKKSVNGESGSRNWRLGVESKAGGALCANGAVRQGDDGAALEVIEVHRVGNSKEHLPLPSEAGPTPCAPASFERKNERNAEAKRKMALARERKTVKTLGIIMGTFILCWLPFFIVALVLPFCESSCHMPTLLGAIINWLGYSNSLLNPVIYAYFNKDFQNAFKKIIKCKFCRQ
The experiment in a line: Displacement of [3H]8-OH-DPAT from human 5HT1A receptor transfected in HEK293-EBNA cells after 120 mins. The series is classed as cell-based.
Conditions: not given
`COc1ccccc1-c1cccc(N2CCN(CCOCCC(=O)NCc3ccc(F)nc3)CC2)c1`: the Ki stood at 0.387 µM.

In turn, `COc1ccc(CNC(=O)CCCCCN2CCN(c3cccnc3-c3ccncc3)CC2)cc1` registered a Ki of 0.537 µM.

Compound `O=C(CCCCCN1CCN(c2ncccc2-c2ccncc2)CC1)NCc1ccc(F)nc1` registered a Ki of 0.203 µM.

The compound `COc1ccc(-c2ccccc2N2CCN(CCOCCC(=O)NCc3ccc(F)nc3)CC2)cc1` gave a Ki of 0.568 µM.

For the compound `Cc1ccccc1-c1ccccc1N1CCN(CCOCCC(=O)NCc2ccc(F)nc2)CC1`, the Ki worked out at 0.875 µM.

`COc1ccc(CNC(=O)CCCCCN2CCN(c3ncccc3-c3ccncc3)CC2)cc1` displayed a Ki of 0.614 µM.

`O=C(CCOCCN1CCN(c2ccccc2-c2ccc(F)cc2)CC1)NCc1ccc(F)nc1` had a Ki of 0.433 µM.

In the case of `O=C(CCCCCN1CCN(c2cccnc2-c2ccncc2)CC1)NCc1ccc(F)nc1`, affinity was put at a Ki of 0.961 µM. Compared with the last compound, the Ki is about 2.2-fold higher.

Compound `COc1ccc(CNC(=O)CCOCCN2CCN(c3ccccc3-c3ccccc3C)CC2)cc1` displayed a Ki of 0.743 µM.

In turn, `COc1ccc(CNC(=O)CCOCCN2CCN(c3cccc(-c4ccccc4OC)c3)CC2)cc1` yielded a Ki of 0.186 µM.

As for `COc1ccc(CNC(=O)CCOCCN2CCN(c3ccccc3-c3ccc(F)cc3)CC2)cc1`, the Ki was 0.272 µM.

Test system in the next series: not listed separately
The experiment in a line: Drug uptake in Danish Landrace pig brain at 52 to 300 MBq, iv administered 90 mins prior to cyclosporine A challenge measured after 30 mins by PET imaging analysis. The series is classed as ADME, organism-based, Sus scrofa. The note with it: in vivo, 0.5 h.
On to `[11CH3]Oc1ccc(-c2ccccc2N2CCN(CCOCCC(=O)NCc3ccncc3)CC2)cc1`, for which the Drug uptake result is listed as “Active”.

Test system in another series: not listed separately
Kind of series: Drug metabolism in Danish Landrace pig plasma assessed as compound remaining at 432 +/- 102 MBq, iv after 5 mins. The series is classed as ADME, organism-based, Sus scrofa. The note with it: read-out: Stability.
Turning to `[11CH3]Oc1ccc(-c2ccccc2N2CCN(CCOCCC(=O)NCc3ccncc3)CC2)cc1`, the remaining at 5 min was 30%.

In a further series the target is T3, 5-hydroxytryptamine receptor 7 (Homo sapiens, UniProt P34969). The experiment in a line: Displacement of [3H]5-CT from human 5HT7 receptor transfected in HEK293 cells after 60 mins by Scatchard plot analysis. The series is classed as cell-based.
T3 sequence (P34969 whole entry): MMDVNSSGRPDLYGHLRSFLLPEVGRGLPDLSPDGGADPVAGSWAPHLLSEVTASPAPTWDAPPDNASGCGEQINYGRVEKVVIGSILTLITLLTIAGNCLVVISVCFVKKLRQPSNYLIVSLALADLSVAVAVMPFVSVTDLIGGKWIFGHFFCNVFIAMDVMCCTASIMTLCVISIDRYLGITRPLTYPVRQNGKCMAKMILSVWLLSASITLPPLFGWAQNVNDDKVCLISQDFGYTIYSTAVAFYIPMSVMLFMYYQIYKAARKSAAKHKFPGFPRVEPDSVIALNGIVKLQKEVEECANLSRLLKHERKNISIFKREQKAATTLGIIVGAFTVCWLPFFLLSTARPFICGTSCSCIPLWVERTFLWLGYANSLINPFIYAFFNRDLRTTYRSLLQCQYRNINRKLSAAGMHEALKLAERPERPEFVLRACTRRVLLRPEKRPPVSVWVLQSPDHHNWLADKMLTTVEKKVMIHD
Conditions: not given
The term Kd denotes the constant that tells how readily two partners part at equilibrium. `COc1ccc(-c2ccccc2N2CCN(CCCCCC(=O)NCc3ccncc3)CC2)cc1` displayed a Bmax of 2.7 pmol/mg and a Kd of 0.00117 µM.

Test system in a further series: not listed separately
The experiment in a line: Drug metabolism in rat liver S9 fraction assessed as compound remaining at 10 uM after 30 mins by RP-HPLC analysis. The following applies: read-out: Stability. The series is classed as ADME, subcellular.
On to `COc1ccc(-c2ccccc2N2CCN(CCOCCC(=O)NCc3ccncc3)CC2)cc1`, for which the remaining at 0.5 h, 10 µM was 82%.

With `COc1ccc(-c2ccccc2N2CCN(CCCCCC(=O)NCc3ccncc3)CC2)cc1`, the remaining at 0.5 h, 10 µM is 76%.

Test system in a further series: not listed separately
Kind of series: Efflux ratio of permeability from basolateral to apical side over apical to basolateral side in human Caco2 cells at 10 to 100 uM after 30 to 120 mins. The following applies: Caco-2. The series is classed as ADME, cell-based. (Passage across Caco-2 layers is used to estimate intestinal permeability.)
As usually defined, the efflux ratio is a quotient of directional permeabilities that is used to spot active efflux. For the compound `COc1ccc(-c2ccccc2N2CCN(CCOCCC(=O)NCc3ccncc3)CC2)cc1`, the efflux ratio at up to 100 µM is 4.48.

Turning to `COc1ccc(-c2ccccc2N2CCN(CCCCCC(=O)NCc3ccncc3)CC2)cc1`, the efflux ratio at up to 100 µM stood at 3.33.

Another series concerns the target T3, 5-hydroxytryptamine receptor 7. The experiment in a line: Displacement of [3H]5-CT from human 5HT7 receptor transfected in HEK293 cells after 60 mins. The series is classed as cell-based.
Conditions: not given
(Loss of bound radioactivity is the signal in a displacement assay; it reports binding, not function.)
The compound `COc1ccccc1-c1cccc(N2CCN(CCOCCC(=O)NCc3ccc(F)nc3)CC2)c1` displayed a Ki of more than 1 µM.

`COc1ccc(CNC(=O)CCCCCN2CCN(c3cccnc3-c3ccncc3)CC2)cc1`: the Ki came out at 0.0642 µM.

As to `O=C(CCCCCN1CCN(c2ncccc2-c2ccncc2)CC1)NCc1ccc(F)nc1`, the Ki was 0.071 µM.

Regarding `COc1ccc(-c2ccccc2N2CCN(CCOCCC(=O)NCc3ccc(F)nc3)CC2)cc1`, the Ki came to 0.0345 µM.

Consider `Cc1ccccc1-c1ccccc1N1CCN(CCOCCC(=O)NCc2ccc(F)nc2)CC1`, for which the Ki was found to be 0.0128 µM.

In the case of `COc1ccc(CNC(=O)CCCCCN2CCN(c3ncccc3-c3ccncc3)CC2)cc1`, the Ki came out at 0.0261 µM.

For the compound `O=C(CCOCCN1CCN(c2ccccc2-c2ccc(F)cc2)CC1)NCc1ccc(F)nc1`, the affinity, expressed as Ki, was 0.0159 µM.

The compound `O=C(CCCCCN1CCN(c2cccnc2-c2ccncc2)CC1)NCc1ccc(F)nc1` displayed a Ki of 0.0667 µM. Compared with the last compound, the Ki is about 4.2-fold higher.

For `COc1ccc(CNC(=O)CCOCCN2CCN(c3ccccc3-c3ccccc3C)CC2)cc1`, the affinity, expressed as Ki, was 0.0334 µM.

Compound `COc1ccc(CNC(=O)CCOCCN2CCN(c3cccc(-c4ccccc4OC)c3)CC2)cc1` had an inhibition constant Ki of more than 1 µM.

`COc1ccc(CNC(=O)CCOCCN2CCN(c3ccccc3-c3ccc(F)cc3)CC2)cc1` came in with a Ki of 0.0452 µM.

Test system in a further series: not listed separately
The experiment in a line: Drug uptake in Danish Landrace pig brain at 432 +/- 102 MBq, iv after 90 mins by PET imaging analysis. The series is classed as ADME, organism-based, Sus scrofa. The note with it: in vivo.
As to `[11CH3]Oc1ccc(-c2ccccc2N2CCN(CCCCCC(=O)NCc3ccncc3)CC2)cc1`, the Drug uptake entry is reported as “Active”.

Test system in the next series: not listed separately
The experiment in a line: Drug uptake in Danish Landrace pig brain at 432 +/- 102 MBq, iv administered 90 mins prior to cyclosporine A challenge measured after 30 mins by PET imaging analysis. The note with it: in vivo, 0.5 h. The series is classed as ADME, organism-based, Sus scrofa.
For `[11CH3]Oc1ccc(-c2ccccc2N2CCN(CCCCCC(=O)NCc3ccncc3)CC2)cc1`, the Drug uptake result is recorded as “Active”.

Test system in a further series: not listed separately
Kind of series: Drug uptake in Danish Landrace pig brain at 52 to 300 MBq, iv after 90 mins by PET imaging analysis. The note with it: in vivo. The series is classed as ADME, organism-based, Sus scrofa.
Turning to `[11CH3]Oc1ccc(-c2ccccc2N2CCN(CCOCCC(=O)NCc3ccncc3)CC2)cc1`, the Drug uptake result is “Active”.
